Values of other authors, collected in PMC10070485, “In silico study of HASDI (high-affinity selective DNA intercalator) as a new agent capable of highly selective recognition of the DNA sequence” (Scientific Reports, 2023).

What was measured:
[1] = test system: DNA sequences; parameters: method as in PMID 24446378; details: docking, MD, MM-PBSA, MESP
[2] = test system: DNA sequences of the d(ATGCAT)2 type; parameters: method as in PMID 34299405; details: diamine linker in the major groove
[3] = test system: DNA sequences; parameters: method as in PMID 31820194; details: MD, MM-PB(GB)SA, DFT
[4] = test system: A-T base pairs; details: fluorescence titrations

Cc1cc(-c2nc3cc(F)ccc3s2)ccc1N [5F]
DNA groove specificity [1]: affinity only to the minor groove

Nc1cccc2oc(-c3ccccc3)cc(=O)c12 [AMF, 5-aminoflavone]
DNA groove specificity [1]: stable in the minor groove of AT-rich DNA and in the major groove of GC-rich DNA

Cc1cccc2nc3cccc(C(=O)NCCNCCNCCNC(=O)c4cccc5nc6cccc(C)c6nc45)c3nc12 [MLN944]
DNA sequence type of greatest affinity [2]: d(ATGCAT)2

COc1cccc2c1C(=O)c1c(O)c3c(c(O)c1C2=O)C[C@@](O)(C(C)=O)C[C@@H]3O[C@H]1C[C@H](N)[C@H](O)[C@H](C)O1 [daunomycin]
DNA sequence specificity [3]: highest affinity for TC/GA rich sequences

neomycin-Hoechst 33258-pyrene conjugate
number of A-T base pairs selectively recognized [4]: up to 9
